Measurements reported in patent US20070202047A1, “Polyamine-substituted ligands for use as contrast agents” (priority 2006, published 2007).

Experiments:
[1] = system: B16, MH3924A, Hela, MCF-7, A498 and mouse fibroblasts (3T3 NIH); experiment: Intracellular uptake, cell panel of FIG. 7A (ICP-MS); format: cell-based; details: 1-h incubation, 10-100 μM, samples of 3×10^6 cells (FIG. 7A)
Description: (§1) Cell Uptake Studies. A493 (human kidney), B16 melanoma cells (mouse), HeLa (human cervix), MCF-7 (human breats), MH3924A (Morris hepatoma) cells (rat) and 3T3 NIH (mouse fibroblasts) were obtained from the DKFZ tumor cell collection. 3×10^6 cells of each cell type were grown for 24 hours in culture flasks. Afterwards they were incubated for 1 hour in 10 mL culture media containing 0, 10, 50 and 100 μM of Gd-2.2. Gd-3.2 or Gd-4.2. Afterwards the medium was removed, the cells were trypsinated, washed twice, resuspended in culture medium and counted. The gadolinium uptake was determined in triplicate. […] cells were incubated with 0, 1, 2.5, 5 and 10 μM of the Gd-1.2. and Gd-5.2. for 24 h.
(§2) ICP-MS: Equal cell counts were taken and digested with HNO3 under microwave heating (Mars5, CEM). The samples were diluted with water containing Rh-103 as an internal standard. Gd-157 measurements were performed with a high resolution ICP-mass spectrometer (ELEMENT 2, Finnigan MAT). The gadolinium concentrations were determined from standard curves created prior to sample analyses.

[2] = system: subcutaneous MH3924A tumor; experiment: MRI of ACI rats bearing a subcutaneous MH3924A tumor; format: in vivo, rat; details: 1 h post Gd, 0.1 mmol/kg i.v., 2.35 T
Description: (§3) Animal models. For in vivo tumor studies 2×10^6 MH3924A tumor cells were injected subcutaneously into the right thigh of male ACI rats (Charles River, Sulzfeld, Germany) weighing 220 to 260 g. All animal experiments were performed in compliance with the German Animal Protection Laws (Permission 35-9185.81/G-7-03, Reg.-Praesidium, Karlsruhe, Germany).
MRI. At 25 days after inoculation, when tumors had reached a diameter of ca. 10-15 mm, the MR imaging experiments were initiated. ACI rats were anesthetized by intravenous injection of ketamin (Ketanest®, 0.1 mg/g body wt.; Parke-Davis, Berlin, Germany). Then a dose of 0.1 mmol/kg Magnevist® or Gadovist® (Schering, Berlin, Germany) or one of the synthesized agents Gd-3.1., Gd-5.1. or Gd-6.1. was injected intravenously into a lateral tail vein. For one experiment a higher dose (0.36 mmol/kg) of Magnevist® was used. Individual rats were examined by MRI at 1 h and 24 h post Gd, in the case of Magnevist® also at ca. 15 min post Gd. Proton imaging studies were performed at 2.35 T (100.3 MHz) with a Biospec 24/40 instrument (Bruker BioSpin MRI, Ettlingen, Germany). […] Two transaxial multislice imaging protocols were applied with a field of view of 70×70 mm, 128 time-domain data points, 96 phase-encoding steps, and 16 slices of 2 mm thickness. A multi-spin-echo sequence was used for proton-density and T2-weighted images (repetition time TR=2 s, 12 echoes with echo times TE of 8, 16, 24, . . . 96 ms, number of averages=1), and a spoiled gradient-echo sequence was used for T1-weighted imaging (TR=212 ms, TE=5 ms, flip angle=60°, number of averages=3). The data were Fourier transformed to give a 128×128 image matrix with 0.55 mm pixel resolution. Analogous T1-weighted images with coronal slices were acquired with a field of view of 80×80 mm and 3-mm slice thickness.
Imaging viewing, ROI analysis and export of TIFF files was performed with the freeware MRIcro from Chris Rorden (http://people.cas.sc.edu/rorden/mricro.html).

[3] = biological target: T1, human serum albumin (Homo sapiens, UniProt P02768); experiment: Serum albumin binding (ultrafiltration, ICP-MS); format: in vitro ADME; details: 20 μM complex, 40 g/L HSA, 37° C., ultrafiltrate
T1 construct: purchased Behring, Bern, Switzerland
Description: Serum albumin binding. Solutions containing 20 μM Gd-3.1., Gd-5.1. or Gd-6.1. and 40 g/L human serum albumin (Behring, Bern, Switzerland) were incubated at 37° C. for 30 or 90 min. The solutions were subjected to ultrafiltration (filter cutoff 20 kD; Sartorius, Göttingen, Germany), and the amount of unbound complex was determined in the ultrafiltrate with ICP-MS (n=2).
HSA Binding: 20 μM solutions of the complexes were incubated at 37° C. for 30 and 90 minutes in a solution of 40 g HSA/L (Behring, Bern; Switzerland). The amount of unbound complex was determined in ultrafiltrates with ICP-MS.

[4] = system: MH3924A Morris hepatoma cells; experiment: Intracellular uptake of gadolinium complexes (ICP-MS); format: cell-based, rat; details: MH3924A
Description: (§4) Cell culture. B16 melanoma cells (mouse) and MH3924A Morris hepatoma cells (rat) were obtained from the German Cancer Research Center (DKFZ) tumor bank and grown at 37° C. as stock cultures in RPMI 1640 supplemented with 10% fetal calf serum and 1% glutamine as standard medium under a 5% CO2 atmosphere (all components: Pan Biotech GmbH, Aidenbach, Germany). For contrast agent uptake studies 10^6 cells were inoculated into 25 cm^2 culture flasks (BD Biosciences, Bedford, USA) and grown for 24 h in 10 mL of the standard culture medium. Cells were then incubated for an additional 24 h (1 h for temperature dependence studies) with fresh medium containing 0, 1, 2.5, 5 or 10 μM of the selected gadolinium complex (three replicate flasks for each incubation). Afterwards the medium was removed, cells were trypsinated, washed twice, resuspended in culture medium and counted (typical yields: 3.5-6 million cells). For comparison 2.5×10^5 human melanocytes (Promo Cell, Heidelberg, Germany) were incubated for 24 h with melanocyte growth medium (Promo Cell, Heidelberg, Germany) containing 0, 1, 2.5, 5 or 10 μM of the selected gadolinium complex (two replicate flasks for each incubation). The work up procedure was as described above typically yielding 2.5×10^5 cells. Cultured human hepatocytes (Cytonet GmbH, Weinheim, Germany) embedded in a collagen matrix in a 12 well microtiter plate, with 6×10^5 viable cells per well were incubated for 24 h in hepatocyte growth medium (Cytonet GmbH, Weinheim, Germany) containing the same concentration series of selected gadolinium complexes. Afterwards the medium was removed, cells were separated using collagenase (Roche Diagnostics, Mannheim, Germany). After digestion the cells were washed twice with PBS, resuspended in culture medium and counted (typical yields: 6×10^5 cells per tube). The intracellular gadolinium content was determined by ICP-MS as described below.
(§5) ICP-MS. Samples containing the above mentioned number of harvested cells were digested with 50% concentrated HNO3 (Superselect; Merck, Darmstadt, Germany) under microwave heating with a Mars 5 apparatus (CEM GmbH, Kamp-Lintfort, Germany). To each sample 100 μL of an aqueous solution of rhodium chloride (1 μg/mL) were added so that Rh-103 could be used as an internal quantification standard. Gd-160 measurements were performed with the ICP-MS instrument mentioned above. The gadolinium concentrations were determined using standard curves created prior to cell analyses. For each uptake incubation condition triplicate cell samples were analyzed, and Gd content for each sample was recorded as the mean of two MS determinations.
(§6) Intracellular Uptake of Gadolinium Complexes. B16 melanoma and MH3924A hepatoma cells as well as human melanocytes and hepatocytes were incubated for 24 h in the presence of the gadolinium complexes shown in FIG. 1, using concentrations in the range of 1-10 μM. Incubations with the unsubstituted [Gd(DTPA)(H2O)]^2−complex (Magnevist®) served as controls. Following cell harvest and hydrolysis, inductively coupled plasma mass spectrometry (ICP-MS) with direct detection of gadolinium was used to quantitate complex uptake (triplicate cultures for each incubation).
as §1, with “h. […]” for “h.”

[5] = system: B16 melanoma cells; experiment: as above; format: cell-based, mouse; details: B16 melanoma cells, 1 h incubation, 100 μM
Description: as §4, §5, §6
as §1, with “h. […]” for “h.”

[6] = system: MCF-7 (human breast cancer); experiment: as above; format: cell-based; details: MCF-7, 1 h incubation, 100 μM
Description: as §1, §2

[7] = system: HeLa (human cervix carcinoma cells); experiment: as above; format: cell-based; details: 1 h incubation, 100 μM
Description: as §1, §2

[8] = system: A498 (human kidney carcinoma); experiment: as above; format: cell-based; details: A498, 1 h incubation, 100 μM
Description: as §1, §2

[9] = Complex stability; format: physicochemical; details: method of Sherry et al.
Description: Complex stability. The stability constants were determined using a method of Sherry et al. (39).

[10] = Biodistribution in BALB/c nu/nu mice carrying B16 melanoma; format: in vivo, mouse; details: 1 h post i.v. injection, perfused organs, B16 melanoma-bearing mice
Description: as §3, with “model.” for “models.”, “3×10^6 B16” for “2×10^6 MH3924A”, “BALB/c nu/nu mice” for “ACI rats”, “18” for “220”, “21” for “260”
Biodistribution data. At 10 days after tumor inoculation, when tumors had reached a diameter of ca. 7-8 mm, the biodistribution experiments were initiated. Each animal (18-21 g) was given an intravenous tail-vein injection of 975 μmol/kg Gadovist® (Schering, Berlin, Germany) or 1 μmol/kg of Gd-2.2. 1 h post-injection (p.i.), the animals were weighed, sacrificed by cervical dislocation, perfused and dissected. Organs or tissues were blotted dry and weighed. Samples containing the tumor or organs were digested with concentrated HNO3 (Superselect; Merck, Darmstadt, Germany) and H2O2 under microwave heating with a Mars 5 apparatus (CEM GmbH, Kamp-Lintfort, Germany). To each sample 100 μL of an aqueous solution of rhodium chloride (1 μg/mL) were added so that Rh-103 could be used as an internal quantification standard. […] The gadolinium concentrations were determined using standard curves created prior to tissue analyses. The results are expressed as nmol Gd/g tissue scaled on the dose of 100 μmol of the corresponding Gd complex.

T1 sequence (P02768 25-609): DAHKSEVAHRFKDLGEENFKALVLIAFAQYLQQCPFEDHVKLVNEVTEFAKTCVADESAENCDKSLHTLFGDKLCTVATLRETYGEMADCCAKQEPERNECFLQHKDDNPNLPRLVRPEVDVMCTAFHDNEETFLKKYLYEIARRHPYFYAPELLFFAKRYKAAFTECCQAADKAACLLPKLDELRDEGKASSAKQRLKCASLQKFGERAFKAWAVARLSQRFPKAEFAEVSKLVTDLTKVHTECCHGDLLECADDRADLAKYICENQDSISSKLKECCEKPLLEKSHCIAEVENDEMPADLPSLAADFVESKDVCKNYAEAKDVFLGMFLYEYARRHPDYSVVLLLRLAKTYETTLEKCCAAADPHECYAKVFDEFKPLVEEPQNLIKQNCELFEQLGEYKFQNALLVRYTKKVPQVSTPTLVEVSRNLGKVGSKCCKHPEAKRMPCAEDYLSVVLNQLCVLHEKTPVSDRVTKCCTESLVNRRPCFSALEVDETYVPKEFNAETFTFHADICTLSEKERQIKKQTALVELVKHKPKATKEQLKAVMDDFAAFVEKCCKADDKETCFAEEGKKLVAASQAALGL

Compound | intracellular uptake (below ICP-MS detection limit) [1] | contrast ratio tumor vs. muscle tissue, T1 weighting [2] | complex found to be free (unbound) [3] | intracellular gadolinium content after 1 h incubation plus additional 24 h in complex-free medium [4] | intracellular uptake of gadolinium complex ([4]; 1 h incubation with 100 μM complex) | intracellular uptake of gadolinium complex [5] | intracellular uptake of gadolinium complex [6] | intracellular uptake of gadolinium complex [7] | intracellular uptake of gadolinium complex [8] | complex stability constant [9] | preferential tissue binding (biodistribution) [10]
O=C([O-])CN1CCN(CC(=O)[O-])CCN([C@H](CO)[C@H](O)CO)CCN(CC(=O)[O-])CC1.[Gd+3] (racemic) [Gadovist, gadobutrol, reference compound] | < 0.01 fmol/cell | ≤ 1.06 | – | – | – | – | – | – | – | – | –
NCCN(CCN)C(=O)CN1CCN(CC(=O)[O-])CCN(CC(=O)[O-])CCN(CC(=O)[O-])CC1.[Gd+3] [Gd-2.2] | – | – | 92±5% | the same as for the 1 h incubation | 0.222 fmol/cell | 0.057 fmol/cell | 0.0086 fmol/cell | 0.0078 fmol/cell | 0.023 fmol/cell | about 3.45×10^21 | binds preferentially to kidneys and skin tissue, but shows high tumor uptake as well
